Five compounds from US20260022142A1, “MACROCYCLIC IMMUNOMODULATORS” (Bristol-Myers Squibb Company, priority 2022, published 2026) can be followed below.

SMILES strings stand for the structures. Bridge positions count the residues as written; N and C are the ends. Square brackets hold non-standard residues; d marks the D form. Peptide text beside a SMILES is read from it. * marks the point of attachment. Bip = N[C@@H](Cc1ccc(-c2ccccc2)cc1)C(=O)O; Phe(3-Me) = Cc1cccc(C[C@H](N)C(=O)O)c1; Cha = N[C@@H](CC1CCCCC1)C(=O)O; Cit = NC(=O)NCCC[C@H](N)C(=O)O; Carboxymethyl = O=C(O)C*; Orn = NCCC[C@H](N)C(=O)O; Aun = NCCCCCCCCCCC(=O)O; Dab = NCC[C@H](N)C(=O)O; Dap = NC[C@H](N)C(=O)O

The assay deals with T1, PD-1/PD-L1 interaction (PE-labeled human PD-L1-Ig binding to Jurkat cell line over-expressing human PD-1) (Homo sapiens, UniProt Q15116).
T1 construct: expressed in transfected cells; host or cells: Jurkat
T1 sequence (Q15116 25-288): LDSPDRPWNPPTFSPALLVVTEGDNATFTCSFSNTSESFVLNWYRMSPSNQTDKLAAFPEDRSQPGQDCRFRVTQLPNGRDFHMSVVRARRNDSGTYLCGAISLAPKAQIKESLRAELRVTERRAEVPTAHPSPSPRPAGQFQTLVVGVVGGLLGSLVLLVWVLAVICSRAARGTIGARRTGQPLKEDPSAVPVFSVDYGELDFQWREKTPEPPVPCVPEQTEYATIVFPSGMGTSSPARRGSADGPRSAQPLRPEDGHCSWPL
The assay can be described thus: Jurkat-PD-1 Cell Binding High-Content Screening Assay (CBA). Type of assay: cell-based. The settings on record: Jurkat cell line over-expressing human PD-1; PE-labeled PD-L1-Ig 20 nM final; read-out: Jurkat hPD1-PDL1 IC50. In a few lines:
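Binding of fluorescent PD-L1-Ig (phycoerythrin on Ig tag, 20 nM final, 1 h) measured by high-content imaging of fixed, Hoechst-counterstained Jurkat-hPD-1 cells. Compound added 2 h at 37° C beforehand, in DMEM with 10% fetal calf serum.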
By IC50 is commonly meant the concentration needed to halve the response being measured. Consider `Cc1cccc(C[C@@H]2NC(=O)[C@H](CC(=O)O)NC(=O)[C@H](Cc3ccc(OCC(=O)O)cc3)NC(=O)[C@H](CN)NC(=O)CSC[C@@H](C(=O)N[C@@H](C)C(=O)N[C@@H](CC(=O)O)C(=O)NCC(=O)NCCCCCCCCCCC(=O)O)NC(=O)[C@H]([C@@H](C)O)NC(=O)[C@H](C(C)C)NC(=O)[C@H](CC3CCCCC3)NC(=O)[C@H](CCN)NC(=O)[C@@H](CC(C)C)NC(=O)[C@H](CCCN)NC(=O)[C@H](CCC(=O)O)NC(=O)[C@H](Cc3ccc(-c4ccccc4)cc3)NC(=O)[C@H](C(C)C)NC2=O)c1` [Compound 1047] ({CH2CO}-[Dap]Y(Carboxymethyl)D[Phe(3-Me)]V[Bip]E[Orn][dL][Dab][Cha]VTCADG[Aun]-OH; thioether N-14), for which the IC50 amounted to 13.2 nM. The figure for `Cc1cccc(C[C@@H]2NC(=O)[C@H](CC(=O)O)NC(=O)[C@H](Cc3ccc(OCC(=O)O)cc3)NC(=O)[C@H](CN)NC(=O)CSC[C@@H](C(=O)N[C@@H](CC(=O)O)C(=O)NCCCCCCCCCCC(=O)O)NC(=O)[C@H]([C@@H](C)O)NC(=O)[C@H](C(C)C)NC(=O)[C@H](CC3CCCCC3)NC(=O)[C@H](CCN)NC(=O)[C@@H](CC(C)C)NC(=O)[C@H](CCCN)NC(=O)[C@H](CCC(=O)O)NC(=O)[C@H](Cc3ccc(-c4ccccc4)cc3)NC(=O)[C@H](C(C)C)NC2=O)c1` [Compound 1048] ({CH2CO}-[Dap]Y(Carboxymethyl)D[Phe(3-Me)]V[Bip]E[Orn][dL][Dab][Cha]VTCD[Aun]-OH; thioether N-14) is 18.3 nM; for `Cc1cccc(C[C@@H]2NC(=O)[C@H](CC(=O)O)NC(=O)[C@H](Cc3ccc(OCC(=O)O)cc3)NC(=O)[C@H](CN)NC(=O)CSC[C@@H](C(=O)N[C@@H](C)C(=O)N[C@@H](CC(=O)O)C(=O)NCCCCCCCCCCC(=O)O)NC(=O)[C@H]([C@@H](C)O)NC(=O)[C@H](C(C)C)NC(=O)[C@H](CC3CCCCC3)NC(=O)[C@H](CCN)NC(=O)[C@@H](CC(C)C)NC(=O)[C@H](CCCN)NC(=O)[C@H](CCC(=O)O)NC(=O)[C@H](Cc3ccc(-c4ccccc4)cc3)NC(=O)[C@H](C(C)C)NC2=O)c1` [Compound 1049] ({CH2CO}-[Dap]Y(Carboxymethyl)D[Phe(3-Me)]V[Bip]E[Orn][dL][Dab][Cha]VTCAD[Aun]-OH; thioether N-14) it is 15 nM; for `Cc1cccc(C[C@@H]2NC(=O)[C@H](CC(=O)O)NC(=O)[C@H](Cc3ccc(OCC(=O)O)cc3)NC(=O)[C@H](Cc3ccc(OCC(=O)O)cc3)NC(=O)CSC[C@@H](C(=O)NCC(=O)N[C@@H](CCN)C(=O)NCC(=O)NCCCCCCCCCCC(=O)O)NC(=O)[C@H](CO)NC(=O)[C@H](C(C)C)NC(=O)[C@H](CC3CCCCC3)NC(=O)[C@H](CCN)NC(=O)[C@@H](CC(C)C)NC(=O)[C@H](CCCN)NC(=O)[C@H](C(C)C)NC(=O)[C@H](Cc3ccc(-c4ccccc4)cc3)NC(=O)[C@H](CC(C)C)NC2=O)c1` [Compound 1050] ({CH2CO}-Y(Carboxymethyl)Y(Carboxymethyl)D[Phe(3-Me)]L[Bip]V[Orn][dL][Dab][Cha]VSCG[Dab]G[Aun]-OH; thioether N-14) it is 20.9 nM. The figure for `Cc1cccc(C[C@@H]2NC(=O)[C@H](CC(=O)O)NC(=O)[C@H](Cc3ccc(OCC(=O)O)cc3)NC(=O)[C@H](CN)NC(=O)CSC[C@@H](C(=O)N[C@@H](C)C(=O)N[C@@H](CCN)C(=O)NCC(=O)NCCCCCCCCCCC(=O)O)NC(=O)[C@H]([C@@H](C)O)NC(=O)[C@H](C(C)C)NC(=O)[C@H](CC3CCCCC3)NC(=O)[C@H](CCN)NC(=O)[C@@H](CC(C)C)NC(=O)[C@H](CCCN)NC(=O)[C@H](CCCNC(N)=O)NC(=O)[C@H](Cc3ccc(-c4ccccc4)cc3)NC(=O)[C@H](C(C)C)NC2=O)c1` [Compound 1051] ({CH2CO}-[Dap]Y(Carboxymethyl)D[Phe(3-Me)]V[Bip][Cit][Orn][dL][Dab][Cha]VTCA[Dab]G[Aun]-OH; thioether N-14) is 12.3 nM.
